In patent US10800778B2 (Entasis Therapeutics Limited, priority 2016, dated 2020):
Counter-ions that a name gives are not always drawn.

What was measured:
[1] = Stability/conversion of esters in human liver S9; format: in vitro ADME
Procedure: (§1) The human intestinal S9 with the absence of PMSF, human liver S9, rat intestinal S9, and rat liver S9 preparations were obtained from Xenotech (Lenexa, Kans.). The 500-μL incubation solution contained 0.8 mg/mL of enzyme (or no enzyme for buffer stability), 10 μM of test compounds in 100 mM of HEPES buffer, pH 7.4. The hydrolysis reactions were conducted in a 1-mL glass insert (Analytical Sales, Pompton Plains, N.J.) in a shake water bath at 37° C. At 0, 2, 5, 10, 15, 30 and 60 min, the reaction was terminated by pipetting 50 μL incubate to a 96 DeepWell plate (Thermo Fisher Scientific, Rochester, N.Y.) containing 100 μL of acetonitrile with 250 ng/mL of Carbutamide (Sigma-Aldrich, St. Louis, Miss.) as the internal standard. The crashed solutions were then vortexed well followed by centrifuge at 4000 rpm for 15 min at 4° C. The extract was transferred to a new 96 DeepWell plate for LC-MS/MS analysis.
(§2) LC-MS/MS analysis was done using an AB Sciex QTrap 6500 mass spectrometer under positive ionization mode, coupled to a Schimadzu Nexera LC system.
(§3) A Waters Atlantis T3 (3 μm, 3.0×50 mm) column was used for separation. The mobile phase consisted 0.1% formic acid in water (A) and 0.1% formic acid in acetonitrile (B) with a flow rate set at 1.2 mL/min. For the prodrug analysis, the Multiple Reaction Monitoring (MRM) specific for each compound was set up so that both prodrug and its hydrolyzed active can be monitored simultaneously.
(§4) Half-lives listed are based on disappearance of starting ester.

[2] = Stability in pH 7.4 buffer (no enzyme); format: physicochemical; settings: read-out: T1/2 pH 7.4 Buffer
Procedure: as §1, §2, §3, §4

[3] = Stability/conversion of esters in rat intestinal S9; format: in vitro ADME
Procedure: as §1, §2, §3, §4

[4] = Stability/conversion of esters in rat liver S9; format: in vitro ADME
Procedure: as §1, §2, §3, §4

[5] = Stability/conversion of esters in human intestinal S9; format: in vitro ADME
Procedure: as §1, §2, §3, §4

[6] = biological target: OXA-48 (Class D beta-lactamase) (Klebsiella pneumoniae, UniProt Q6XEC0); assay: Inhibition of beta-lactamase enzymes (nitrocefin hydrolysis), OXA-48; format: biochemical; settings: read-out: Class D OXA-48 60 min IC50, nitrocefin 100 μM
Sequence of OXA-48 (Class D beta-lactamase) (Q6XEC0 whole entry, looked up, species assumed): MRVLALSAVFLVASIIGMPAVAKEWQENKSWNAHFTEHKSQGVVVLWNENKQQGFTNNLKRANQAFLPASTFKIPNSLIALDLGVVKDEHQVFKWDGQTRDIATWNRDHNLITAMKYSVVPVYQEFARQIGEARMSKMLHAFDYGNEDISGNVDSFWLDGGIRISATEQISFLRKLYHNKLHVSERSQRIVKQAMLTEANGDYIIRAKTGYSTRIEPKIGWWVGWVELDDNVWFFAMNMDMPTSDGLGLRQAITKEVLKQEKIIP
Procedure: (§5) A buffer consisting of 0.1 M sodium phosphate (pH 7.0), 10 mM NaHCO3, and 0.005% Triton X-100 was used for all enzymes. The chromogenic substrate nitrocefin (SynGene, Bangalore, India) was used at 100 μM. Enzyme activity was monitored by the 490 nm absorbance increase upon nitrocefin hydrolysis. Assays were performed in clear polystyrene 384-well plates (Greiner Bio-One, Monroe, N.C.). Absorbance was measured for 1 hour at 30-s intervals using a Spectramax absorbance plate reader (Molecular Devices, Sunnyvale, Calif.). Measurement of beta-lactamase inhibition by INHIBITOR employed serial 3-fold dilutions of the inhibitor in assay buffer, ranging from 100 μM to 62.7 pM. A background absorbance progress curve for a control lacking enzyme and inhibitor was subtracted from each progress curve.
(§6) The complete set of progress curves for one enzyme with all inhibitor concentrations was subjected to numerical integration with the program Kintek Global Kinetic Explorer (Kintek Corp, Snowshoe Pa.) to obtain a best-fit to the mechanism shown in Scheme 10.
(§7) where E, S, ES, P, I, and EI are the concentrations of the enzyme, nitrocefin, the enzyme-nitrocefin complex, the nitrocefin hydrolysis product, INHIBITOR, and the enzyme-INHIBITOR complex respectively. […] The values of k+2, k+3, and k−3 were fit. Concentration series offsets of the absorbance measurements were used to correct for slight absorbance baseline differences between wells. The parameter k+3 is equivalent to the second order rate constant kinact/Ki. In some cases, the inhibition was in rapid equilibrium on the experimental time scale, so that only the ratio k−3/k+3=Ki could be determined. Although k−3 represents reversal of inhibitor binding in Scheme 10, hydrolysis of the enzyme-inhibitor complex could not be excluded based on kinetic measurements.
(§8) Best-fit absorbance values from the above procedure at each time point for each compound concentration were exported to Excel.
(§9) where A is the best-fit absorbance without inhibitor and Ainhib is the best-fit absorbance in the presence of the inhibitor.
(§10) where [I] is the inhibitor concentration and n is the Hill coefficient. The Excel add-in XLfit (ID Business Solutions) was used for nonlinear regression.

[7] = biological target: TEM-1 (Class A beta-lactamase) (Escherichia coli, UniProt P62593); assay: Inhibition of beta-lactamase enzymes (nitrocefin hydrolysis), TEM-1; format: biochemical; settings: read-out: Class A TEM-1 60 min IC50, nitrocefin 100 μM
Sequence of TEM-1 (Class A beta-lactamase) (P62593 whole entry, looked up, species assumed): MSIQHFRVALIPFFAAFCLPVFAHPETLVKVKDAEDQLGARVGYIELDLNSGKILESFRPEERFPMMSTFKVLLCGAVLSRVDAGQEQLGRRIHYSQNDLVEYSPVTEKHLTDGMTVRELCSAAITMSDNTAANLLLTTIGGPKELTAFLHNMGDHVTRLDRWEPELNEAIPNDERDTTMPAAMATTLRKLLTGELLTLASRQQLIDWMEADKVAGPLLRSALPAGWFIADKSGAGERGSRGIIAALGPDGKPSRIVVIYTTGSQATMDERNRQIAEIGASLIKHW
Procedure: as §5, §6, §7, §8, §9, §10

[8] = liver S9, pH 7.4, read-out: T1/2 Human Liver S9
[9] = intestinal S9, pH 7.4, read-out: T1/2 Rat Intestinal S9
[10] = liver S9, pH 7.4, read-out: T1/2 Rat Liver S9
[11] = intestinal S9 (without PMSF), pH 7.4, read-out: T1/2 Human Intestinal S9
[12] = s9, pH 7.4, read-out: T1/2 Human Intestinal S9

| half-life at 10 μM [1, 8] [min] | half-life at 10 μM ([2]; HEPES buffer without enzyme) [min] | half-life at 10 μM [3, 9] [min] | half-life at 10 μM [4, 10] [min] | half-life at 10 μM [5, 11] [min] | SMILES | IC50 [6] [nM] | IC50 [7] [nM] | further results |
| --- | --- | --- | --- | --- | --- | --- | --- | --- |
| 9.9 | 29 | 21 | 10 | 22 | CCOC(=O)[C@H](F)ON1C(=O)N2C[C@H]1C=C(C)[C@H]2C(=O)NOC[C@@H]1CCCN1 [Example 60, ethyl (2S)-2-fluoro-2-(((2S,5R)-3-methyl-7-oxo-2-((((S)-pyrrolidin-2-yl)methoxy)carbamoyl)-1,6-diazabicyclo[3.2.1]oct-3-en-6-yl)oxy)acetate TFA salt] |  |  |  |
| 6.9 | 68 | 26 | 1.8 | 32 | CC1=C[C@@H]2CN(C(=O)N2O[C@H](F)C(=O)OCC(C)C)[C@@H]1C(N)=O [Example 49, isobutyl (2R)-2-[[(2S,5R)-2-carbamoyl-3-methyl-7-oxo-1,6-diazabicyclo[3.2.1]oct-3-en-6-yl]oxy]-2-fluoro-acetate] |  |  |  |
| 6.4 | 75 | 4.1 | 1.7 | 1.5 | CCCCCOC(=O)[C@@H](F)ON1C(=O)N2C[C@H]1C=C(C)[C@H]2C(N)=O [Example 51, pentyl (2R)-2-[[(2S,5R)-2-carbamoyl-3-methyl-7-oxo-1,6-diazabicyclo[3.2.1]oct-3-en-6-yl]oxy]-2-fluoro-acetate] |  |  |  |
| 0.39 | 33 | 17 | 0.22 | 2 | CCCCCCCCOC(=O)[C@@H](F)ON1C(=O)N2C[C@H]1C=C(C)[C@H]2C(N)=O [Example 45, octyl (2R)-2-[[(2S,5R)-2-carbamoyl-3-methyl-7-oxo-1,6-diazabicyclo[3.2.1]oct-3-en-6-yl]oxy]-2-fluoro-acetate] |  |  |  |
| 1 | 55 |  |  | 44 | CC1=C[C@@H]2CN(C(=O)N2O[C@@H](F)C(=O)OC(C)C)[C@@H]1C(N)=O [Example 13, propan-2-yl (2S)-{[(2S,5R)-2-carbamoyl-3-methyl-7-oxo-1,6-diazabicyclo[3.2.1]oct-3-en-6-yl]oxy}(fluoro)ethanoate] |  |  |  |
| 3.5 | 120 | 30 | 2.8 | 73 | CCCCOC(=O)[C@@H](F)ON1C(=O)N2C[C@H]1C=C(C)[C@H]2C(N)=O [Example 50, butyl (2R)-2-[[(2S,5R)-2-carbamoyl-3-methyl-7-oxo-1,6-diazabicyclo[3.2.1]oct-3-en-6-yl]oxy]-2-fluoro-acetate] |  |  |  |
| 0.84 | 76 | 39 | 0.45 | 5.7 | CCCCCCOC(=O)[C@@H](F)ON1C(=O)N2C[C@H]1C=C(C)[C@H]2C(N)=O [Example 52, hexyl (2R)-2-[[(2S,5R)-2-carbamoyl-3-methyl-7-oxo-1,6-diazabicyclo[3.2.1]oct-3-en-6-yl]oxy]-2-fluoro-acetate] |  |  |  |
| 24 | 39 | 43 | 23 | 36 | CCOC(=O)[C@@H](F)ON1C(=O)N2C[C@H]1C=C(C)[C@H]2C(=O)NCO [Example 86, ethyl (2R)-2-fluoro-2-[[(2S,5R)-2-(hydroxymethylcarbamoyl)-3-methyl-7-oxo-1,6-diazabicyclo[3.2.1]oct-3-en-6-yl]oxy]acetate] |  |  |  |
|  |  |  |  |  | CCC(CC)OC(=O)[C@@H](F)ON1C(=O)N2C[C@H]1C=C(C)[C@H]2C(N)=O [Example 24, (R)-pentan-3-yl 2-((2S,5R)-2-carbamoyl-3-methyl-7-oxo-1,6-diazabicyclo[3.2.1]oct-3-en-6-yloxy)-2-fluoroacetate] |  |  | half-life at 10 μM ([1]; s9, pH 7.4, read-out: T1/2 Human Liver S9): 9 min; half-life at 10 μM ([2]; buffer): > 100 min; half-life at 10 μM [5, 12]: 34 min |
|  |  |  |  |  | CCOC(=O)[C@@H](F)ON1C(=O)N2C[C@H]1C(C)=C[C@H]2C#N [Example 94, ethyl (2R)-2-(((2S,5R)-2-cyano-4-methyl-7-oxo-1,6-diazabicyclo[3.2.1]oct-3-en-6-yl)oxy)-2-fluoroacetate] |  |  | half-life at 10 μM ([2]; buffer): 46.9 min; half-life at 10 μM ([3]; s9, pH 7.4, read-out: T1/2 Rat Intestinal S9): 25.9 min; half-life at 10 μM ([4]; s9, pH 7.4, read-out: T1/2 Rat Liver S9): 1.3 min; half-life at 10 μM [5, 12]: 10.6 min |
|  |  |  |  |  | CC1=C[C@@H](C#N)N2C[C@@H]1N(O[C@H](F)C(=O)O)C2=O [Example 95, (2R)-2-(((2S,5R)-2-cyano-4-methyl-7-oxo-1,6-diazabicyclo[3.2.1]oct-3-en-6-yl)oxy)-2-fluoroacetic acid lithium salt] | 1.3 | 35 |  |
|  |  |  |  |  | CC1=C[C@@H]2CN(C(=O)N2O[C@@H](F)C(=O)O)[C@@H]1C(=O)NCc1cnccn1 [Example 69, (2S)-2-fluoro-2-[[(2S,5R)-3-methyl-7-oxo-2-(pyrazin-2-ylmethyl-carbamoyl)-1,6-diazabicyclo[3.2.1]oct-3-en-6-yl]oxy]acetic acid lithium salt] | 110 | 180 |  |
|  |  |  |  |  | CC1=C[C@@H]2CN(C(=O)N2O[C@@H](F)C(=O)O)[C@@H]1C(=O)NOCC1CC1 [Example 70, (2S)-2-[[(2S,5R)-2-(cyclopropylmethoxycarbamoyl)-3-methyl-7-oxo-1,6-diazabicyclo[3.2.1]oct-3-en-6-yl]oxy]-2-fluoro-acetic acid lithium salt] | 87 | 26 |  |
|  |  |  |  |  | CC1=C[C@@H]2CN(C(=O)N2OC(F)C(=O)O)[C@@H]1c1nnc(C(N)=O)o1 (stereo partly drawn) [Example 55, 2-[[(2S,5R)-2-(5-carbamoyl-1,3,4-oxadiazol-2-yl)-3-methyl-7-oxo-1,6-diazabicyclo[3.2.1]oct-3-en-6-yl]oxy]-2-fluoro-acetic acid lithium salt] | 7.3 | 24 |  |
|  |  |  |  |  | O=C(O)C(F)ON1C(=O)N2C[C@H]1CC[C@H]2C(=O)NC1CCNCC1 (stereo partly shown) [Comparator 99, reference compound] | 82000 | 30 |  |
|  |  |  |  |  | CC1=C[C@@H]2CN(C(=O)N2OC(F)C(=O)O)[C@@H]1C(=O)NCc1cnccn1 (stereo partly drawn) [Example 30, 2-fluoro-2-(((2S,5R)-3-methyl-7-oxo-2-((pyrazin-2-ylmethyl)carbamoyl)-1,6-diazabicyclo[3.2.1]oct-3-en-6-yl)oxy)acetic acid lithium salt] | 140 | 81 |  |
|  |  |  |  |  | CC(=O)NCNC(=O)[C@@H]1C(C)=C[C@@H]2CN1C(=O)N2O[C@@H](F)C(=O)O [Example 88, (2S)-2-fluoro-2-[[(2S,5R)-2-(acetamidomethylcarbamoyl)-3-methyl-7-oxo-1,6-diazabicyclo[3.2.1]oct-3-en-6-yl]oxy]acetic acid lithium salt] | 45 | 54 |  |
|  |  |  |  |  | CC1=C[C@@H](C(N)=O)N2C[C@@H]1N(OC(F)(F)C(=O)O)C2=O [Example 91, 2-(((2S,5R)-2-carbamoyl-4-methyl-7-oxo-1,6-diazabicyclo[3.2.1]oct-3-en-6-yl)oxy)-2,2-difluoroacetic acid lithium salt] | 18 | 0.47 |  |
